Patent US20040209914A1, “Aromatic sulfone hydroxamic acids and their use as protease inhibitors” (priority 2000, published 2004)
Read-outs that look alike come from different tables or passages of the source.

Tests used:
Experiment in all cases: biochemical
Settings in all cases: fluorogenic MCA-peptide substrate, pH 7.5, room temperature
Recombinant human MMP-1 = target: T1, Recombinant human MMP-1 (Homo sapiens, UniProt P03956)
T1 construct: made in house; host or cells: transfected HT-1080 cells
T1 sequence (P03956 100-469): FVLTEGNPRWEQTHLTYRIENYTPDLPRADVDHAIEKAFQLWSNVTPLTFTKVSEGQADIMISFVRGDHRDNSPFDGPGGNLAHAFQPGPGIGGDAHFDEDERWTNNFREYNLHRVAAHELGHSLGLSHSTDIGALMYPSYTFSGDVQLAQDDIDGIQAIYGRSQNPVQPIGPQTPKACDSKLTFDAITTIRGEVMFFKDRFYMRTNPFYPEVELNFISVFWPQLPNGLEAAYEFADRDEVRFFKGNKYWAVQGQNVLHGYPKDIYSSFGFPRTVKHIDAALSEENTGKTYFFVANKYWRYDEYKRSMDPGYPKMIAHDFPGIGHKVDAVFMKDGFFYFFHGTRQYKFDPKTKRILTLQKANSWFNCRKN
Protocol: (§1) Recombinant human MMP-1, MMP-2, MMP-9, MMP-13, and were used in this assay. These enzymes were prepared in the Assignee's es following usual laboratory procedures. Specifics for preparing and e enzymes can be found in the scientific literature describing these See, e.g., Enzyme Nomenclature (Academic Press, San Diego, Calif., d the citations therein).
The MMP-1 was obtained from MMP-1 expressing transfected HT-1080 cells provided by Dr. Harold Welgus of Washington University in St. Louis, Mo. The MMP-1 was activated using 4-aminophenylmercuric acetate (APMA), and then purified over a hydroxamic acid column.
(§2) The enzyme substrate was a methoxycoumarin-containing polypeptide having the following sequence:
(§3) MCA-ProLeuGlyLeuDpaAlaArgNH2
(§4) Here, “MCA” is methoxycoumarin and “Dpa” is 3-(2,4-dinitrophenyl)-L-2,3-diaminopropionyl alanine.
(§5) These solutions were then compared to a control (which contained equal amount of DMSO/buffer solution, but no hydroxamate compound) using Microfluor™ White Plates (Dynatech, Chantilly, Va.). Specifically, The MMPs were activated with APMA or trypsin. […] The control likewise was incubated at room temperature in separate plates with the MMP and 4 uM of the MMP substrate. […] Inhibition was measured as a reduction in fluorescent intensity as a function of inhibitor concentration using a Perkin Elmer (Norwalk, Conn.) L550 plate reader. The IC50's were then calculated from these measurements.

Recombinant human MMP-2 = target: T2, Recombinant human MMP-2 (Homo sapiens, UniProt P08253)
T2 construct: made in house
T2 sequence (P08253 110-660): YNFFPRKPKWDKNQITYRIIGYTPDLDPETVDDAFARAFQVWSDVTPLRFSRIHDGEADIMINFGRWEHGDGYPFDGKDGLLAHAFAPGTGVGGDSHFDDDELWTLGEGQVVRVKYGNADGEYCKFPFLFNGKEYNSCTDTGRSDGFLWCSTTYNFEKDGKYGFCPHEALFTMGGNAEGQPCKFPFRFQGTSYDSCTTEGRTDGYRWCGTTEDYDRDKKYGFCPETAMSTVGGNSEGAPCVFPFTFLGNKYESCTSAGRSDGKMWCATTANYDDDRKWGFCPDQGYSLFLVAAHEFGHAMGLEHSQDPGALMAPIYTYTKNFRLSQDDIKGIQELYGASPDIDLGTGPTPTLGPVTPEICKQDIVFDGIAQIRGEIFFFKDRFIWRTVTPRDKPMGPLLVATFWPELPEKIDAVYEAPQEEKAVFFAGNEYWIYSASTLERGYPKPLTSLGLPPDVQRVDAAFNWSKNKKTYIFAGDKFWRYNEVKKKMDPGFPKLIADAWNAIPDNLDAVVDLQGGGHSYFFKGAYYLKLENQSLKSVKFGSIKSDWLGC
Protocol: as §1
The MMP-2 was obtained from MMP-2 expressing transfected cells provided by Dr. Gregory Goldberg of Washington University.
as §2, §3, §4, §5

Recombinant human MMP-13 = target: T3, Recombinant human MMP-13 (Homo sapiens, UniProt P45452)
T3 construct: made in house; host or cells: baculovirus / insect cells
Protocol: as §1
The expressed proenzyme was first purified over a heparin agarose column, and then over a chelating zinc chloride column. The proenzyme was then activated by APMA for use in the assay.
as §2, §3, §4, §5

SMILES | IC50 (Recombinant human MMP-1) [µM] | IC50 (Recombinant human MMP-2; read-out: MMP-2 IC50) [nM] | IC50 (Recombinant human MMP-13; read-out: MMP-13 IC50) [nM] | IC50 (Recombinant human MMP-2; MMP-2 IC50(nM)) [nM] | IC50 (Recombinant human MMP-13; MMP-13 IC50(nM)) [nM]
COc1ccc(C2CCN(c3ccc(S(=O)(=O)C4(C(=O)NO)CCN(C5CC5)CC4)cc3)CC2)cc1 [Example 260] | > 10 | 1.2 | 0.4 |  | 
O=C(C1CCN(c2ccc(S(=O)(=O)C3(C(=O)NO)CCOCC3)cc2)CC1)N1CCN(c2ccccc2Cl)CC1 [Example 4] | > 10 | 2900 | 15.6 |  | 
COCCN1CCN(C(=O)C2CCN(c3ccc(S(=O)(=O)C4(C(=O)NO)CCOCC4)cc3)CC2)CC1 [Example 18] | > 10 | > 10000 | > 10000 |  | 
C#CCN1CCC(C(=O)NO)(S(=O)(=O)c2ccc(N3CCC(C(=O)c4ccc(OC(C)C)c(C)c4)CC3)cc2)CC1 [Example 162] | > 10 | 495 | 2.7 |  | 
CCCCc1ccc(C(=O)C2CCN(c3ccc(S(=O)(=O)C4(C(=O)NO)CCN(CCOC)CC4)cc3)CC2)s1 [Example 121] | > 10 | 58.8 | 0.1 |  | 
C#CCN1CCC(C(=O)NO)(S(=O)(=O)c2ccc(N3CCC(C(=O)c4ccc(OC)cc4)CC3)cc2)CC1 [Example 151] | > 10 | 128 | 1.3 |  | 
Cc1ccc(C2CCN(c3ccc(S(=O)(=O)C4(C(=O)NO)CCN(C5CC5)CC4)cc3)CC2)cc1 [Example 272] | > 10 | 5.9 | 1.3 |  | 
O=C(C1CCN(c2ccc(S(=O)(=O)C3(C(=O)NO)CCOCC3)cc2)CC1)N1CCN(c2ncccn2)CC1 [Example 23] | > 10 |  |  | 1600 | 6.4
O=C(c1ccc(CC2CCCC2)cc1)C1CCN(c2ccc(S(=O)(=O)C3(C(=O)NO)CCN(C4CC4)CC3)cc2)CC1 [Example 197] | > 10 | 1720 | 1.4 |  | 
COCCN1CCC(C(=O)NO)(S(=O)(=O)c2ccc(N3CCC(C(=O)c4ccc(OC5CCCC5)cc4)CC3)cc2)CC1 [Example 227] | > 10 | 132 | 1.4 |  | 
COCCN1CCC(C(=O)NO)(S(=O)(=O)c2ccc(N3CCC(C(=O)c4ccc(OC)cc4)CC3)cc2)CC1 [Example 156] | > 10 | 1340 | 0.7 |  | 
COCCN1CCC(C(=O)NO)(S(=O)(=O)c2ccc(N3CCC(C(=O)c4ccc(Cl)c(C)c4)CC3)cc2)CC1 [Example 211] | > 10 | 122 | 1.2 |  | 
CCC(C)Cc1ccc(C(=O)C2CCN(c3ccc(S(=O)(=O)C4(C(=O)NO)CCN(CC)CC4)cc3)CC2)cc1 (centres unmarked) [Example 233] | > 10 | 1050 | 1.2 |  | 
O=C(C1CCN(c2ccc(S(=O)(=O)C3(C(=O)NO)CCOCC3)cc2)CC1)N1CCN(CCO)CC1 [Example 10] | > 10 | 6000 | 40 |  | 
CC(C)Cc1ccc(C(=O)C2CCN(c3ccc(S(=O)(=O)C4(C(=O)NO)CCOCC4)cc3)CC2)cc1 [Example 377] | > 10 | 361 | 0.4 |  | 
O=C(NO)C1(S(=O)(=O)c2ccc(N3CCC(c4ccc(F)cc4)CC3)cc2)CCN(CC2CC2)CC1 [Example 263] | > 10 | 2.6 | 1.5 |  | 
CC(C)Oc1ccc(C(=O)C2CCN(c3ccc(S(=O)(=O)C4(C(=O)NO)CCN(C5CC5)CC4)cc3)CC2)cc1 [Example 215] | > 10 | 22.7 | 0.9 |  | 
CCN1CCC(C(=O)NO)(S(=O)(=O)c2ccc(N3CCC(C(=O)c4ccc(CCCC(C)O)cc4)CC3)cc2)CC1 (centres unmarked) [Example 247] | > 10 | 111 | 0.3 |  | 

SMILES | IC50 (Recombinant human MMP-1) [µM] | IC50 (Recombinant human MMP-2; read-out: MMP-2 IC50) [nM] | IC50 (Recombinant human MMP-13; read-out: MMP-13 IC50) [nM] | IC50 (Recombinant human MMP-2; MMP-2 IC50(nM)) [nM] | IC50 (Recombinant human MMP-13; MMP-13 IC50(nM)) [nM]
Cc1ccc(Cl)cc1N1CCN(C(=O)C2CCN(c3ccc(S(=O)(=O)C4(C(=O)NO)CCOCC4)cc3)CC2)CC1 [Example 6] | > 10 | > 10000 | 18.1 |  | 
CC(C)CCOc1ccc(C(=O)C2CCN(c3ccc(S(=O)(=O)C4(C(=O)NO)CCN(C5CC5)CC4)cc3)CC2)cc1 [Example 217] | > 10 | 270 | 1.3 |  | 
O=C(c1ccc(Cl)cc1)C1CCN(c2ccc(S(=O)(=O)C3(C(=O)NO)CCN(CC4CC4)CC3)cc2)CC1 [Example 123] | > 10 | 46.3 | 0.1 |  | 
O=C(C1CCN(c2ccc(S(=O)(=O)C3(C(=O)NO)CCOCC3)cc2)CC1)N1CCN(c2ccccc2F)CC1 [Example 12] | > 10 |  |  | 1400 | 6.7
CCC(CC)Cc1ccc(C(=O)C2CCN(c3ccc(S(=O)(=O)C4(C(=O)NO)CCN(CC)CC4)cc3)CC2)cc1 [Example 234] | > 10 | 2440 | 7.5 |  | 
Cc1ccc(N2CCN(C(=O)C3CCN(c4ccc(S(=O)(=O)C5(C(=O)NO)CCOCC5)cc4)CC3)CC2)c(C)c1 [Example 9] | > 10 | 5600 | 12.2 |  | 
O=C(c1ccc(Br)cc1)C1CCN(c2ccc(S(=O)(=O)C3(C(=O)NO)CCN(C4CC4)CC3)cc2)CC1 [Example 190] | > 10 | 23.1 | 0.2 |  | 
CCN1CCC(C(=O)NO)(S(=O)(=O)c2ccc(N3CCC(C(=O)c4ccc(CC(C)CO)cc4)CC3)cc2)CC1 (centres unmarked) [Example 235] | > 10 | 118 | 0.8 |  | 
C#CCN1CCC(C(=O)NO)(S(=O)(=O)c2ccc(N3CCC(C(=O)c4ccc(Cl)cc4)CC3)cc2)CC1 [Example 153] | > 10 | 30.6 | 0.2 |  | 
O=C(c1ccc2ccccc2c1)C1CCN(c2ccc(S(=O)(=O)C3(C(=O)NO)CCN(CC4CC4)CC3)cc2)CC1 [Example 187] | > 10 | 242 | 2.7 |  | 
CCN1CCC(C(=O)NO)(S(=O)(=O)c2ccc(N3CCC(C(=O)c4ccc(CCC(C)O)cc4)CC3)cc2)CC1 (centres unmarked) [Example 248] | > 10 | 141 | 0.6 |  | 
Cc1ccc(C(=O)C2CCN(c3ccc(S(=O)(=O)C4(C(=O)NO)CCN(CC5CC5)CC4)cc3)CC2)cc1 [Example 210] | > 10 | 13.1 | 1.1 |  | 
O=C(C1CCN(c2ccc(S(=O)(=O)C3(C(=O)NO)CCOCC3)cc2)CC1)N1CCN(c2ccc(C(F)(F)F)cc2)CC1 [Example 33] | 0.0674 |  |  |  | 
COCCN1CCC(C(=O)NO)(S(=O)(=O)c2ccc(N3CCC(c4ccc(C)cc4)CC3)cc2)CC1 [Example 269] | > 10 |  | 1.4 |  | 
O=C(NO)C1(S(=O)(=O)c2ccc(N3CCC(c4ccc(Cl)cc4)CC3)cc2)CCN(C2CC2)CC1 [Example 261] |  | 1 | 0.8 |  | 
CNc1ccc(C(=O)C2CCN(c3ccc(S(=O)(=O)C4(C(=O)NO)CCN(S(C)(=O)=O)CC4)cc3)CC2)cc1 [Example 167] |  | 2950 | 4.7 |  | 
O=C(NO)C1(S(=O)(=O)c2ccc(N3CCC(c4ccc(Cl)cc4)CC3)cc2)CCN(CC2CC2)CC1 [Example 274] | > 10 |  | 2.1 |  | 
COCCN1CCC(C(=O)NO)(S(=O)(=O)c2ccc(N3CCC(C(=O)c4ccc(COC)s4)CC3)cc2)CC1 [Example 252] |  | 14.3 | 0.4 |  | 
